In patent US11022550B2, “Method for observing organisms and associated system” (Commissariat à l'énergie atomique et aux énergies …, priority 2013, dated 2021):

Legend:
Format in all cases: cell-based
[1] = tested on: Escherichia coli ATCC 259922 (strain EC10); test: E-test minimum inhibitory concentration, sensitive strain EC10
Description: The sensitive strain is of the Escherichia coli species with the ATCC number of 259922. In the continuation of the description, the sensitive strain is noted as EC10. The minimum inhibitory concentration of the strain EC10 amounts to 1.0 μg/ml. In microbiology, the minimum inhibitory concentration (also noted with the acronym MIC) is the lowest concentration of antimicrobial agent which inhibits visible growth of an organism after one night of incubation. The value of 1.0 μg/ml for the minimum inhibitory concentration was obtained by conducting an E-test®. The principle of the E-test® is based on the combination of both concepts: Dilution and diffusion. The system E-test® comprises a non-porous plastic strip calibrated by a pre-established gradient of antibiotic concentration covering 15 dilutions for determining the MIC in μg/ml of a strain tested in a gelose medium.

[2] = tested on: Escherichia coli ATCC 35421 (strain EC21); test: E-test minimum inhibitory concentration, resistant strain EC21
Excerpt: The principle of the E-test® is based on the combination of both concepts: Dilution and diffusion. The system E-test® comprises a non-porous plastic strip calibrated by a pre-established gradient of antibiotic concentration covering 15 dilutions for determining the MIC in μg/ml of a strain tested in a gelose medium.
The resistant strain is of the Escherichia coli species of ATCC number 35421. In the continuation of the description, the resistant strain is noted as EC21.
This measurement was obtained by conducting an E-test®.

[3] = tested on: Escherichia coli strain EC10; test: Microcolony growth and diffraction patterns on MH2 agar with gentamycin disc gradient, strain EC10 (first and third experiments)
Excerpt: The solid substrate 16 is a MH2 agar medium. Depending on the cases, the solid substrate 16 includes an antibiotic with increasing concentration when one moves away from the center of the Petri dish. For example, such a gradient is obtained by depositing a disc impregnated with 30 micrograms (μg) of antibiotics. The disc, as an illustration, is a disc with a diameter of 6.5 mm, the reference of which is 66548 in the Biorad Corporation. When the disc is deposited at the surface of the substrate 16, an antibiotic concentration gradient is established, in the substrate 16, between the disc and the periphery of the substrate 16. In each case, the sample 12 to be studied is prepared according to the following procedure. At least one cell of the strain to be studied is cultivated on a trypticase soya gelose medium (often called TSA for <<Tryptic Soy Agar>>) for at least 24 hours. A suspension of 5 milliliters (ml) comprising water and an amount of cells of the strain such that the turbidity of the solution is equal to 0.5 McF (McFarland standard), is then prepared. The obtained suspension is diluted to 1/1000th in water in a single step. In the relevant experiments, […] are poured into […]. A volume of 70 μl of the thereby obtained diluted suspension is then spread out by means of a rake on the solid MH2 agar substrate 16. Such a volume corresponds to the spreading of approximately 1,000 to 1,500 colonies on the solid substrate 16. In the case when the experiment is conducted with a solid substrate 16 comprising the antibiotic gradient, the disc is applied immediately after the spreading step. The whole of the sample 12 is then incubated for six hours at a temperature of 37° C. (Celsius). After these six hours, the observation system 10 is used for applying a method for observing the cells of the sample 12. For the first experiment, the studied organisms belong to the EC10 strain and the solid substrate 16 comprises a gentamycin gradient. A first colony of cells of the EC10 strain of the sample 12 is illuminated with the laser beam emitted by the laser source 20. The center of this colony is found at a distance of 13.5 millimeters (mm) from the center of the disc, in an area with low gentamycin concentration, since it is sufficiently far from the disc. For the third experiment, a large number of diffraction patterns is acquired (about 100) for solid substrates 16 with and without gentamycin. The studied organism is a cell from the EC10 strain.

[4] = tested on: Escherichia coli strain EC21; test: Microcolony growth and diffraction patterns on MH2 agar with gentamycin disc gradient, strain EC21 (second experiment)
Excerpt: The solid substrate 16 is a MH2 agar medium. Depending on the cases, the solid substrate 16 includes an antibiotic with increasing concentration when one moves away from the center of the Petri dish. For example, such a gradient is obtained by depositing a disc impregnated with 30 micrograms (μg) of antibiotics. The disc, as an illustration, is a disc with a diameter of 6.5 mm, the reference of which is 66548 in the Biorad Corporation. When the disc is deposited at the surface of the substrate 16, an antibiotic concentration gradient is established, in the substrate 16, between the disc and the periphery of the substrate 16. In each case, the sample 12 to be studied is prepared according to the following procedure. At least one cell of the strain to be studied is cultivated on a trypticase soya gelose medium (often called TSA for <<Tryptic Soy Agar>>) for at least 24 hours. A suspension of 5 milliliters (ml) comprising water and an amount of cells of the strain such that the turbidity of the solution is equal to 0.5 McF (McFarland standard), is then prepared. The obtained suspension is diluted to 1/1000th in water in a single step. In the relevant experiments, […] are poured into […]. A volume of 70 μl of the thereby obtained diluted suspension is then spread out by means of a rake on the solid MH2 agar substrate 16. Such a volume corresponds to the spreading of approximately 1,000 to 1,500 colonies on the solid substrate 16. In the case when the experiment is conducted with a solid substrate 16 comprising the antibiotic gradient, the disc is applied immediately after the spreading step. The whole of the sample 12 is then incubated for six hours at a temperature of 37° C. (Celsius). After these six hours, the observation system 10 is used for applying a method for observing the cells of the sample 12. For the second experiment, the same experiment is conducted as the first experiment, by replacing the cells of the strain EC10 with cells of the strain EC21. […]

In the case of gentamycin, the “minimum inhibitory concentration (MIC)” value [1] is reported as 1.0 µg/mL, the “minimum inhibitory concentration (MIC)” value [2] is reported as “greater than 256 μg/ml” and the “maximum size of colony in direct space” value ([3]; 5.0 mm from center of 30 μg disc, 6 h incubation at 37° C.) is reported as “about 15 μm”. The “maximum size of colony in direct space” value ([3]; 8.3 mm from center of 30 μg disc, 6 h incubation at 37° C.) was “about 30 μm”, the “maximum size of colony in direct space” value ([3]; 9.1 mm from center of 30 μg disc, 6 h incubation at 37° C.) was “about 50 μm” and the “colony diameter in direct space” value ([3]; 13.5 mm from center of 30 μg disc, 6 h incubation at 37° C.) was “about 60 μm”. For the same substance, the “sensitivity of organism from main component analysis of diffraction patterns” value ([3]; about 100 diffraction patterns, with and without gentamycin, first main component smaller at larger concentration) was “sensitive”, the “maximum extension of each observed colony” value ([4]; 7.29, 6.63, 5.53 and 4.37 mm from center of 30 μg disc, 6 h incubation at 37° C.) was roughly 90 μm and the “sensitivity of organism from comparison of diffraction patterns” value ([4]; diffraction patterns substantially identical at increasing gentamycin concentration) was “resistant”. For the same substance, the “effect on growth of the organisms” value ([4]; gentamycin gradient on MH2 agar) was “no effect on the growth”.
